What was measured:
myeloma type tumor cells = conditions: in vitro; cited from earlier work
[1] = system: DHD/K12-PROb colon adenocarcinoma; assay: Colon adenocarcinoma (DHD/K12-PROb cells s.c.) in BD-IX rats; assay type: in vivo; conditions: weekly injection
Protocol: In this experimental model BD-IX rats were divided into four groups: Groups G1 and G2, designated “cancer groups”, were used to study the effects of NAC on the progression of colon cancer, and Groups G3 and G4, designated “toxicity groups”, were used to study the effects of the treatment on metabolic processes and the parenchyma. DHD/K12-PROb cells were injected subcutaneously into the chest of Group G1 and G2 animals. From 1 to 13 weeks after inoculation the animals in Groups G2 and G4 received a weekly injection of NAC. The animals in Groups G1 and G3 received no treatment.

[2] = system: 4NQO-induced rat malignant oral keratinocytes; assay: 4NQO-induced rat malignant oral keratinocytes transplanted orthotopically to athymic mice; assay type: in vivo; conditions: for potential to metastasise: differentiated rat malignant oral keratinocytes, versus untreated
From the text: The effects of NAC or di-NAC on the metastatic capacity of clonal populations of 4NQO-induced rat malignant oral keratinocytes were examined after orthotopic transplantation to athymic mice. Polygonal cells and spindle cells formed well-differentiated squamous cell carcinomas (keratin positive and vimentin negative) and undifferentiated spindle cell tumors (keratin negative and vimentin positive), respectively, in all animals at the site of inoculation (floor of mouth).

[3] = system: localized psoriatic plaques; assay: Local treatment of psoriatic plaques in volunteers with NAC or di-NAC cream; assay type: in vivo, human; conditions: base-cream 10-20 weight %; for outcome of prolonged treatment: weeks to a few months; for most commonly reported side effect: with occlusive bandage
From the text: Five informed volunteers displaying localized psoriatic plaques were locally treated with a base-cream containing 10-20 weight % of NAC or di-NAC. The cream had been applied every night for variable periods—from weeks to a few months—with or without occlusive bandage. The skin of the patient was normally washed between each daily treatment. No other drugs were contemporarily used.

8-isoprostane = assay: AOM-induced rat colon cancer model, 8-isoprostane levels; assay type: in vivo; conditions: colonic tumors, versus control
Protocol: (§1) Since the efficacy of NAC against colon cancer is significant, the mechanisms of inhibiting colon carcinogenesis were explored by investigating the activities of protein kinase C (PKC), tyrosine protein kinase (TPK), and diacylglycerol kinase (DGK) as well as the 8-isoprostane levels in colonic mucosa and tumor tissues in an azoxy-methane (AOM)-induced rat colon cancer model.
(§2) At seven weeks of age corresponding groups of rats were injected s.c. with azoxymethane (AOM; 15 mg/kg body weight, once weekly for 2 weeks), and different experiments were continued until 38 weeks after the second AOM treatment. Then, the rats were then sacrificed and colonic mucosal as well as tumor samples were evaluated for PKC, TPK, DGK, and 8-isoprostane levels.

[4] = cited from earlier work
[5] = system: human colon carcinoma cells (CaCo2); assay: Effects of NAC and di-NAC on human colon carcinoma cells (CaCo2) in culture; assay type: cell-based; conditions: for local concentration for maximum inhibition of proliferation (no growth) / time to differentiate when treated: CaCo2; for toxic side effects: CaCo2, summary
Protocol: An established cell line of human colon carcinoma cells was used (CaCo2). CaCo2 is a proliferating human colon carcinoma cell line displaying irregular morphology, forming multiple cell layers with scarce microvillous structures and large intercellular spaces.
The CaCo2 cells were treated with various millimolar concentrations of NAC, ranging from 2 to 10 mM. NAC was added to the culture medium 24 hours after inoculation of the cells. After 3 days of culture in the presence of NAC the cells were analyzed for the following marker parameters: […]

[6] = system: primary normal human epidermal keratinocytes (NHEK); assay: Effects of NAC or di-NAC on primary normal human epidermal keratinocytes (NHEK) in culture; assay type: cell-based; conditions: for cell-cell junctions / concentration of E-cadherins / tubulin expression: 2 mM; for cell-cell junctions / concentration of E-cadherins / tubulin expression / concentration for complete suppression of cell proliferation: 3 days; for concentration for complete suppression of cell proliferation: 1 to 10 mM; for toxic side effects: summary
From the text: Primary normal human epidermal keratinocytes (NHEK) obtained from Clonetics Inc. (San Diego, Calif., U.S.A.) were cultivated in the medium provided by the supplier. These cells have a limited life-span of about 15 days in culture and undergo a normal differentiation process of epidermal keratinocytes with a final enucleation and exfoliation. After inoculation the cells acquire a polygonal morphology cell-cell adhesions. The cytoskeleton morphology is quite organized, mainly at the cell borders.
NHEK cells were treated with various millimolar concentrations of NAC or di-NAC, ranging from 1 to 10 mM. The substances were added to the culture medium 24 hours after inoculation. After 3 days of culture in the presence of 2 mM of NAC or di-NAC the cells were analysed for the following marker parameters: […]

[7] = system: diacylglycerol kinase (DGK); assay: AOM-induced rat colon cancer model, DGK activity; assay type: in vivo; conditions: P<0.01
Protocol: as §1, §2

[8] = system: 1,2-dimethylhydrazine (DMH)-induced large intestinal tumors; assay: DMH-induced large intestinal tumors in rats; assay type: in vivo, male Sprague-Dawley rats
From the text: The effects of daily NAC treatment or intermittent NAC treatments on intestinal tumors, which had been induced by treating male Sprague-Dawley rats with 1,2-dimethylhydrazine (DMH), were investigated.

[9] = system: tyrosine protein kinase (TPK); assay: AOM-induced rat colon cancer model, TPK activity; assay type: in vivo; conditions: colonic mucosal and tumor, P<0.01
Protocol: as §1, §2

protein kinase C (PKC) = assay: AOM-induced rat colon cancer model, PKC activity; assay type: in vivo; conditions: colonic mucosa and tumors, P<0.01
Protocol: as §1, §2

arteriosclerosis = conditions: WHHL rabbits; cited from earlier work
[10] = system: human colon carcinoma cells (CaCo2); assay: Effects of NAC and di-NAC on human colon carcinoma cells (CaCo2) in culture; assay type: cell-based; conditions: CaCo2, di-NAC treatment

SMILES: CC(=O)N[C@@H](CS)C(=O)O [NAC, N-acetyl-L-cysteine]
- activity against myeloma type tumor cells (myeloma type tumor cells): tumor proliferation inhibitory activity
- tumor growth ([1]; female and male rats): significantly slower
- life span ([1]; 1 to 13 weeks after inoculation): extended life span
- potential to metastasise [2]: decreased potential to metastasise
- inhibition of clones of polygonal cells ([2]; exogenous NAC): markedly inhibited
- inhibition of spindle cells ([2]; exogenous NAC): inhibited
- outcome of prolonged treatment [3]: complete remission of all symptoms
- most commonly reported side effect [3]: local hitching
- 8-isoprostane levels (8-isoprostane): lower levels
- side effects when used clinically ([4]; even after high doses, such as 10 g/day): no significant side effects
- clearance ([4]; in vivo): relatively rapid
- side effects after intravenous injection ([4]; paracetamol poisoning, 10 grams i.v. in 15 minutes, then half of the dose in 30 min): without any reported side effects
- local concentration for maximum inhibition of proliferation (no growth) [5]: about 1 mM
- time to differentiate when treated [5]: 3 days
- apoptosis / necrosis ([5]; CaCo2, 2 to 10 mM, 3 days): Neither apoptosis nor necrosis was observed
- concentration of maximum effect on decrease of cell proliferation ([5]; CaCo2, 2 to 10 mM, 3 days of culture): 2 mM
- cell-cell adhesion structures ([5]; CaCo2, 3 days of culture): increased number
- tubulin expression ([5]; CaCo2, 3 days of culture): strongly reduced
- cell viability ([5]; CaCo2, all doses added (2 to 10 mM), 3 days): unaffected
- toxic side effects [5]: without any detectable toxic side effects
- concentration at which reversion of colon cancer cells is induced [5]: 1 mM
- concentration at which colon carcinoma completely differentiate [5]: 5 mM
- local concentration for maximum inhibition of proliferation (no growth) ([6]; NHEK): about 1 mM
- time to differentiate when treated ([6]; NHEK): 3 days
- cell-cell junctions ([6]; NHEK): increased number
- concentration of E-cadherins ([6]; NHEK): increased
- tubulin expression ([6]; NHEK): reduced
- concentration for complete suppression of cell proliferation ([6]; NHEK): 2 mM
- cell viability ([6]; NHEK, all doses, up to 10 mM): unaffected
- toxic side effects ([6]; NHEK): no toxic side effects
- apoptosis / necrosis ([6]; NHEK, up to 10 mM): Neither apoptosis nor necrosis was observed
- concentration at which keratinocytes completely differentiate [6]: 1 mM
- minimum dose required to accelerate differentiation of normal keratinocytes [6]: 0.5 mM
- DGK activity [7]: significant increased
- large intestinal tumor mass index ([8]; NAC-treated group, p<0.001 vs control): 0.04
- adenocarcinomas in the colons ([8]; daily NAC treatment): no adenocarcinomas were present
- large intestinal tumor burden ([8]; intermittent NAC treatment, p=0.001 vs control): 1 tumors/treatment group
- TPK activities [9]: significantly suppressed
- Ca2+ dependent and independent PKC activities (protein kinase C (PKC)): significantly inhibited

SMILES: CC(=O)N[C@@H](CSSC[C@H](NC(C)=O)C(=O)O)C(=O)O [di-NAC, N,N′-diacetyl-L-cystine]
- effect on arteriosclerosis (arteriosclerosis): inhibits arteriosclerosis
- potential to metastasise [2]: decreased potential to metastasise
- outcome of prolonged treatment [3]: complete remission of all symptoms
- most commonly reported side effect [3]: local hitching
- local concentration for maximum inhibition of proliferation (no growth) [5]: about 1 mM
- time to differentiate when treated [5]: 3 days
- toxic side effects [5]: without any detectable toxic side effects
- concentration at which reversion of colon cancer cells is induced [5]: 1 mM
- concentration at which colon carcinoma completely differentiate [5]: 5 mM
- local concentration for maximum inhibition of proliferation (no growth) ([6]; NHEK): about 1 mM
- time to differentiate when treated ([6]; NHEK): 3 days
- cell-cell junctions ([6]; NHEK): increased number
- concentration of E-cadherins ([6]; NHEK): increased
- tubulin expression ([6]; NHEK): reduced
- concentration for complete suppression of cell proliferation ([6]; NHEK): 2 mM
- toxic side effects ([6]; NHEK): no toxic side effects
- concentration at which keratinocytes completely differentiate [6]: 1 mM
- minimum dose required to accelerate differentiation of normal keratinocytes [6]: 0.5 mM
- E-cadherin expression [10]: increased
- proliferation [10]: decreased proliferation

From patent US20040097521A1, “Clinical treatment” (priority 2000, published 2004)
